In patent publication US20260083865A1, “PROSTATE SPECIFIC MEMBRANE ANTIGEN (PSMA) LIGANDS AND USE THEREOF” (priority 2022, published 2026):
Where two headings read alike, the source gives them in different places. Numbered stars: 1 amine (or outer) side, 2 acyl side, 3 side chain; on linkers, the order of the positions; unused ones are H or OH. Bridge positions count the residues as written; N and C are the ends. Square brackets hold non-standard residues; d marks the D form. Side chains are listed from the residue outwards. Peptide text beside a SMILES is read from it. * marks the point of attachment. TtdsdLys(DOTA)NH2 = NC(=O)[C@@H](CCCCNC(=O)CN1CCN(CC(=O)O)CCN(CC(=O)O)CCN(CC(=O)O)CC1)NC(=O)CCC(=O)NCCCOCCOCCOCCCN*; Acetyl(1-DOTA-4-piperidyl) = O=C(O)CN1CCN(CC(=O)O)CCN(CC(=O)N2CCC(CC(=O)*)CC2)CCN(CC(=O)O)CC1; X3 = O=C(O)CN1CCN(CC(=O)O)CCN(CC(=O)NCCCOCCOCCOCCCN*)CCN(CC(=O)O)CC1; DOTA = O=C(O)CN1CCN(CC(=O)O)CCN(CC(=O)*)CCN(CC(=O)O)CC1; Phe(4-Cl) = N[C@@H](Cc1ccc(Cl)cc1)C(=O)O; X1 = O=C(CC1CCN([*:1])CC1)[*:2]; Suc = O=C(CCC(=O)[*:2])[*:1]; Tle = CC(C)(C)[C@H](N)C(=O)O; Hexanoyl = CCCCCC(=O)*; Aib = CC(C)(N)C(=O)O; Ahx = NCCCCCC(=O)O

Tests used:
[1] = molecular target: T1, PSMA-expressing C4-2 cells (Homo sapiens, UniProt Q04609); experiment: FACS binding assay (competition with 50 nM PSM-0183); conditions: read-out: pIC50 [C4-2] CAT (converted)
T1 construct: PSMA-expressing C4-2 cells (ATCC, Cat. No. CRL-3314) were cultured in RPMI-1640; host or cells: C4-2 cells
T1 sequence (Q04609 whole entry): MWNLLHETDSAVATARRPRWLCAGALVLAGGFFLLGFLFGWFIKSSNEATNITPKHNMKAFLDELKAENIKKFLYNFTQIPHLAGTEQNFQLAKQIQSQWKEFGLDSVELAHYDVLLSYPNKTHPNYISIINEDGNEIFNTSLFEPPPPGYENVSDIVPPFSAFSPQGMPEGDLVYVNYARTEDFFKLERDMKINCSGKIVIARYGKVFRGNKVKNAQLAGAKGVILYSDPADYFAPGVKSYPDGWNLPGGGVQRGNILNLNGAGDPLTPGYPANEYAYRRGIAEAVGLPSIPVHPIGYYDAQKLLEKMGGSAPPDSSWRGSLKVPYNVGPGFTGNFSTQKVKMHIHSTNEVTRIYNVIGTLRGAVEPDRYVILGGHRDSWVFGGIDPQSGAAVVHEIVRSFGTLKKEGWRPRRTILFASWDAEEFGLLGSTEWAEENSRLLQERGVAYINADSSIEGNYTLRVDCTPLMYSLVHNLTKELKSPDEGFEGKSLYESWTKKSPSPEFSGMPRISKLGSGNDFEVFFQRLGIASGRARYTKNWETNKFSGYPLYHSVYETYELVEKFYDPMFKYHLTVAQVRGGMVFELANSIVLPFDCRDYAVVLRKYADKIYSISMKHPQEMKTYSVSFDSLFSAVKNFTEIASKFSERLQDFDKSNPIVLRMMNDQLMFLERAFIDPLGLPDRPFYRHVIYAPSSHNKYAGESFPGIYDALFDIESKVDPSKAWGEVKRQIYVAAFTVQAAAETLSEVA
How it was run: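 C4-2 cells were incubated 1 h at 4 °C with 50 nM AF488-labelled peptide PSM-0183 plus increasing test compound concentrations, then washed twice in ice-cold buffer. Median fluorescence in the AF488 channel was read by flow cytometry. IC50/pIC50 was derived by 4PL fitting of MFI versus concentration.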

[2] = molecular target: T2, Fc-fusion protein of human PSMA (hPSMA-Fc) (Homo sapiens, UniProt Q04609); experiment: Surface plasmon resonance assay (Biacore T200, single cycle kinetic); format: binding; conditions: hPSMA-Fc, 25° C., read-out: pKD CAT (converted)
T2 construct: purchased Acro Biosystems PSA-H5264
T2 sequence (Q04609 44-750 limits assumed): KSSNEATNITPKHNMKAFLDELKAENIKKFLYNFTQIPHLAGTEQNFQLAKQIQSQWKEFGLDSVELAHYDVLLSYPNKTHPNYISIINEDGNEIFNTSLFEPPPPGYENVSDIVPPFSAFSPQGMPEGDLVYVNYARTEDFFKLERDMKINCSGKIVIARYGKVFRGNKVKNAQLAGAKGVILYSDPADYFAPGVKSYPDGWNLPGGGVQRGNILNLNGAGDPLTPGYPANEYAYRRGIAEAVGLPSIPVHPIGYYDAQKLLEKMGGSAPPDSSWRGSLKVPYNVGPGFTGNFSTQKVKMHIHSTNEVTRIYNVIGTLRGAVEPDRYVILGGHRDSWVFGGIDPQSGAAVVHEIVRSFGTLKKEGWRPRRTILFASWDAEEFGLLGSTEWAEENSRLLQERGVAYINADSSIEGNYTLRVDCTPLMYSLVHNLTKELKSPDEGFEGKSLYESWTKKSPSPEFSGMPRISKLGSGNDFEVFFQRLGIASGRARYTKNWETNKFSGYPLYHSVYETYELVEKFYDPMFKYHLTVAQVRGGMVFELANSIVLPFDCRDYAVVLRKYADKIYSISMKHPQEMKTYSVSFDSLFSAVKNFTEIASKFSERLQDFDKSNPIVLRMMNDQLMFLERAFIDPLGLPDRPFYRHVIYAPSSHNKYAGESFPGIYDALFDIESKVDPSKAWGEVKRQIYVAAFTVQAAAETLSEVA
How it was run: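 hPSMA-Fc was captured (~1000 RU) on an Fc-binding-peptide CM5 chip, and compounds were run in single cycle kinetic mode at 25° C in HBST with 0.1% DMSO. Double-blank-corrected sensorgrams were fitted to a 1:1 Langmuir model to give KD, reported as pKD.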

[3] = pIC50 category of FACS binding, C4-2 cells
[4] = pKD category for PSMA SPR activity assay
[5] = FACS binding, PSMA-expressing C4-2 cells, pIC50 category

| SMILES | IC50 [1, 3] [nM] | Kd [2, 4] [nM] | further results |
| --- | --- | --- | --- |
| CCCCCC(=O)N[C@H](C(=O)NC(C)(C)C(=O)N[C@@H](Cc1ccc(Cl)cc1)C(=O)N[C@H]1CSSC[C@@H](C(=O)N[C@H](C(=O)N[C@H](C(=O)N[C@H](CCCCNC(=O)CC2CCN(C(=O)CN3CCN(CC(=O)O)CCN(CC(=O)O)CCN(CC(=O)O)CC3)CC2)C(N)=O)[C@@H](C)O)C(C)(C)C)NC(=O)[C@H](CC(N)=O)NC(=O)C(C)(C)NC(=O)[C@H](CCCNC(=N)N)NC(=O)[C@H](CCCCN)NC1=O)[C@@H](C)O [PSM-0400, Hex-Thr-Aib-Pcf-[Cys-Lys-Arg-Aib-Asn-Cys]-Tle-Thr-lys(DOTA-Cmp)-NH2] (Hexanoyl-T[Aib][Phe(4-Cl)]CKR[Aib]NC[Tle]T[dK](Acetyl(1-DOTA-4-piperidyl))-NH2; disulfide 4-9) | < 200 | < 12.6 | – |
| CC(=O)N[C@H](C(=O)NC(C)(C)C(=O)N[C@@H](Cc1ccccc1)C(=O)N[C@H]1CSSC[C@@H](C(=O)N[C@H](C(=O)N[C@H](C(=O)NCCCOCCOCCOCCCNC(=O)CCC(=O)N[C@H](CCCCNC(=O)CN2CCN(CC(=O)O)CCN(CC(=O)O)CCN(CC(=O)O)CC2)C(N)=O)[C@@H](C)O)C(C)(C)C)NC(=O)[C@H](CC(N)=O)NC(=O)[C@H](C)NC(=O)[C@H](CCCNC(=N)N)NC(=O)[C@H](CCCCN)NC1=O)[C@@H](C)O [PSM-0231, Ac-Thr-Aib-Phe-[Cys-Lys-Arg-Ala-Asn-Cys]-Tle-Thr-Ttds-lys(DOTA)-NH2] (Ac-T[Aib]FCKRANC[Tle]T-{TtdsdLys(DOTA)NH2}; disulfide 4-9) | – | – | IC50 ([1]; FACS binding, C4-2 cells, competition with 50 nM PSM-0183, category): < 200 nM; Kd ([2]; SPR, single cycle kinetic, category): < 12.6 nM |
| C[C@@H](O)[C@H](NC(=O)[C@@H](NC(=O)[C@@H]1CSSC[C@H](NC(=O)[C@H](Cc2ccc(Cl)cc2)NC(=O)C(C)(C)NC(=O)CCCCCNC(=O)CN2CCN(CC(=O)O)CCN(CC(=O)O)CCN(CC(=O)O)CC2)C(=O)N[C@@H](CCCCN)C(=O)N[C@@H](CCCNC(=N)N)C(=O)NC(C)(C)C(=O)N[C@@H](CC(N)=O)C(=O)N1)C(C)(C)C)C(N)=O [PSM-0310, DOTA-Ahx-Aib-Pcf-[Cys-Lys-Arg-Aib-Asn-Cys]-Tle-Thr-NH2] ({DOTA-Ahx}-[Aib][Phe(4-Cl)]CKR[Aib]NC[Tle]T-NH2; disulfide 3-8) | – | – | IC50 [1, 5]: < 200 nM; Kd ([2]; PSMA SPR assay, pKD category): < 12.6 nM |
| CC(=O)N[C@H](C(=O)NC(C)(C)C(=O)N[C@@H](Cc1ccccc1)C(=O)N[C@H]1CSSC[C@H](C(=O)N[C@H](C(=O)N[C@H](C(N)=O)[C@@H](C)O)C(C)(C)C)NC(=O)[C@H](CC(N)=O)NC(=O)C(C)(C)NC(=O)[C@H](CCCNC(=N)N)NC(=O)[C@H](CCCCN)NC1=O)[C@@H](C)O [PSM-0331, Ac-Thr-Aib-Phe-[Cys-Lys-Arg-Aib-Asn-cys]-Tle-Thr-NH2] (Ac-T[Aib]FCKR[Aib]N[dC][Tle]T-NH2; disulfide 4-9) | – | – | IC50 [1, 5]: 200 to 1260 nM; Kd ([2]; PSMA SPR assay, pKD category): > 501 nM |

More lines, main results first:

| IC50 [1, 3] [nM] | Kd [2, 4] [nM] | SMILES | further results |
| --- | --- | --- | --- |
| < 200 | < 12.6 | CC(=O)N[C@H](C(=O)NC(C)(C)C(=O)N[C@@H](Cc1ccccc1)C(=O)N[C@H]1CSSC[C@@H](C(=O)N[C@H](C(=O)N[C@H](C(=O)N[C@@H](CC(=O)O)C(N)=O)[C@@H](C)O)C(C)(C)C)NC(=O)[C@H](CC(N)=O)NC(=O)[C@H](CCCCNC(=O)CCC(=O)NCCCOCCOCCOCCCNC(=O)CN2CCN(CC(=O)O)CCN(CC(=O)O)CCN(CC(=O)O)CC2)NC(=O)[C@H](CCCNC(=N)N)NC(=O)[C@H](CCCCN)NC1=O)[C@@H](C)O [PSM-0542, Ac-Thr-Aib-Phe-[Cys-Lys-Arg-Lys(DOTA-Ttds)-Asn-Cys]-Tle-Thr-Asp-NH2] (Ac-T[Aib]FCKRK([Suc-X3])NC[Tle]TD-NH2; disulfide 4-9) | – |
| 200 to 1260 | > 501 | CC(=O)NC(C)(C)C(=O)N[C@@H](Cc1ccc(Cl)cc1)C(=O)N[C@H]1CSSC[C@@H](C(N)=O)NC(=O)[C@H](CC(N)=O)NC(=O)C(C)(C)NC(=O)[C@H](CCCNC(=N)N)NC(=O)[C@H](CCCCN)NC1=O [PSM-0443, Ac-Aib-Pcf-[Cys-Lys-Arg-Aib-Asn-Cys]-NH2] (Ac-[Aib][Phe(4-Cl)]CKR[Aib]NC-NH2; disulfide 3-8) | – |
| < 200 | 12.6 to 126 | C[C@@H](O)[C@H](NC(=O)[C@@H](NC(=O)[C@@H]1CSSC[C@H](NC(=O)[C@H](Cc2ccccc2)NC(=O)C(C)(C)NC(=O)CC2CCN(C(=O)CN3CCN(CC(=O)O)CCN(CC(=O)O)CCN(CC(=O)O)CC3)CC2)C(=O)N[C@@H](CCCCN)C(=O)N[C@@H](CCCNC(=N)N)C(=O)NC(C)(C)C(=O)N[C@@H](CC(N)=O)C(=O)N1)C(C)(C)C)C(N)=O [PSM-0507, DOTA-Cmp-Aib-Pho-[Cys-Lys-Arg-Aib-Asn-Cys]-Tle-Thr-NH2] ({DOTA}-[X1][Aib]FCKR[Aib]NC[Tle]T-NH2; disulfide 4-9) | – |
